Assay results reported in patent US5380834A, “Immuno-suppressive agent” (Ishihara Sangyo Kaisha Ltd., priority 1992, dated 1995).
Values after ≈ are worked out from the molar mass of the structure shown. Where two headings read alike, the source gives them in different places.

Columns and labels:
[1] = system: murine thymocytes; test: Effects on the mitogenic response by murine thymocytes (Con A stimulation, 3H-TdR uptake); assay type: cell-based, BALB/c murine; conditions: Mus musculus, Thymocyte, read-out: IC50 value, a (mitogenic response of murine thymocytes)
Protocol: Using BALB/c murine thymocytes, the effect of the compound of the formula (I) on the mitogenic response of lymphocytes to the stimulation by concanavalin A (hereinafter referred to simply as Con A, Product No. L-1000, manufactured by Vector Laboratories) was studied. Namely, 4×10^5 murine thymocytes were cultured for 48 hours on a microplate with 96 wells in a RPMI1640 solution containing 10% of a fetal bovine serum (hereinafter referred to simply as a 10% FCS-RPMI solution) together with Con A (5 μg/ml) and the compound of the formula (I) (in an incubator, 5% CO2, at 37° C.). Then, 0.5 μCi of ^3 H-thymidine (hereinafter referred to simply as ^3 H-TdR) was added thereto, and the mixture was further cultured for 4 hours. Then, cells were collected by a cell harvester, and the radioactivity (dpm) of ^3 H-TdR uptaken into cells was measured. Such measured amounts of ^3 H-TdR uptaken into the cells were used as indices of the mitogenic response of the murine thymocytes, and the radioactivity at each concentration (from 0.001 to 1,000 μg/ml) of the compound of the formula (I) was compared with the control value treated solely by Con A, to calculate IC50 value. In these Tables 12 and 13, the results of murine thymocytes are shown by (a).
For the basic procedure of this test, reference was made to Selected methods in cellular immunology, p. 144-146 (translated by Katsuyuki Imai et al., published by Rikogakusha, (1982)).

[2] = system: murine mixed lymphocyte reaction (spleen cells of BALB/c and C57BL/6 mice); test: Effects on the murine mixed lymphocyte reaction (3H-TdR uptake); assay type: cell-based; conditions: Mus musculus, BALB/c + C57BL/6 spleen cells, 48 hours, read-out: IC50 value, b (murine mixed lymphocyte reaction)
Protocol: Using spleen cells of BALB/c and C57BL/6 mice, the effect of the compound of the formula (I) on the murine mixed lymphocyte reaction in both sides, was studied. Namely, spleen cells of both types of mice were mixed in an equal amount of 5×10^5 cells each, and the mixed cells were cultured together with the compound of the formula (I) for 48 hours on a microplate with 96 wells by a 10% FCS-RPMI solution (in an incubator, 5% CO2, at 37° C.). Then, 0.5 μCi of ^3 H-TdR was added thereto, and the mixture was further cultured for from 16 to 18 hours. Then, cells were collected by a cell harvester, and the radioactivity (dpm) of ^3 H-TdR uptaken into the cells, was measured. Such measured amounts of ^3 H-TdR uptaken into the cells were used as indices for the mixed lymphocyte reaction, and the radioactivity at each concentration (from 0.001 to 1,000 μg/ml) of the compound of the formula (I) was compared with the non-treated control value, to calculate the Ic50 value.
For the basic procedure for this test, reference was made to Selected methods in cellular immunology, p. 147-149 (translated by Katsuyuki Imai et al., published by Rikogakusha, (1982)).

[3] = system: murine bone mallow cells; test: Effects on the murine bone mallow cells (proliferation, 3H-TdR uptake); assay type: cell-based, BALB/c mouse; conditions: Mus musculus
Protocol: Bone mallow cells were removed from the femur of a BALB/c mouse and suspended in a 10% FCS-RPMI solution. The cell suspension was put into a plastic Petri dish having a diameter of 10 cm and left to stand still (in an incubator, 5% CO2, at 37° C.). Two hours later, only floating cells were recovered, and adhesion cells were removed. 1×10^5 floating cells were cultured for 48 hours together with a 20% culture supernatant of L929 fibroblastoma and the compound of the formula (I) on a microplate with 96 wells by a 10% FCS-RPMI solution (in an incubator, 5% CO2, at 37° C.). Then, 0.5 μCi of ^3 H-TdR was added thereto, and the mixture was further cultured for 4 hours. Then, cells were collected by a cell harvester, and the radioactivity (dpm) of ^3 H-TdR uptaken into the cells, was measured. Such measured amounts of ^3 H-TdR uptaken into the cells were used as indices for the proliferation of bone mallow cells, and the radioactivity at each concentration (from 0.001 to 1,000 μg/ml) of the compound of the formula (I) was compared with the control value where the L929 culture supernatant was added alone, to calculate the IC50 value. In these Tables 12 and 13, the results of the bone mallow cells are shown by (c).
For the basic procedure of this test, reference was made to Seikagakujikken Koza compiled by Japan Biochemistry Association, Vol. 5, p. 266-270 (published by Tokyo Kagaku Dojin in 1986).

[4] = system: IgGl antibody production from murine spleen B cells; test: Effects on the IgGl antibody production from murine spleen cells (LPS + IL4); assay type: cell-based, BALB/c mouse; conditions: Mus musculus, B-cell, 168 h, read-out: IC50 value, IgGl antibody production
Protocol: (§1) Using murine spleen B cells, the effects of the compound of the formula (I) on the IgGl, IgM and IgE antibody production induced by the stimulation by LPS (lipopolysaccharide; Product No. 520.02051, manufactured by Wako Junyaku) and IL4 (interleukin 4), were studied. Namely, spleen cells of a BALB/c mouse were treated with a murine anti-Thy-1 antibody (obtained from Chiba University) and a rabbit complement (Product No. 3051, manufactured by cedarlane) to remove T cells, and 3×10^5 spleen B cells were cultured for 7 days together with 10 μg/ml of LPS, 100 U/ml of mouse-recombinant IL4 (Product No. MIL-4C, manufactured by Genzyme) and each concentration (from […]) of the compound of the formula (I) on a microplate with 96 wells by a 10% FCS-RPMI solution (in an incubator, 5% CO2, at 37° C.).
(§2) For the basic procedure of this test, reference was made to The Journal of Immunology, Vol. 136, p. 4538, (1986).
(§3) The amount of each antibody in the cell culture supernatant hereby obtained, was measured by the following enzyme-immunoassay. Firstly, on a microplate with 96 wells, 1 μg/ml of a rabbit anti-mouse IgGl antibody (Product No. 36243, manufactured by Cappel), 1 μg/ml of a goat anti-mouse IgM antibody (Product No. 0611-0201, manufactured by Cappel) or 10 μg/ml of a rat anti-mouse IgE monoclonal antibody (Product No. LO-ME-2, manufactured by Experimental Immunology) was coated (50 μl/well, at room temperature for 60 minutes), and then a nonspecific bond was blocked by a 0.1% bovine serum albumin-containing 10 mM sodium phosphate buffer (pH 7.2) (at room temperature for 60 minutes). Then, the above-mentioned cell culture supernatant or its diluted solution was added in an amount of 50 μl/well and reacted at room temperature for 60 minutes. Further, an alkaline phosphatase-labeled rabbit anti-mouse IgGl antibody (Product No. 61-0122, manufactured by Zymet) diluted 1,000 times, an alkaline phosphatase-labeled rabbit anti-mouse IgM antibody (Product No. 61-6822, manufactured by Zymet) diluted 2,000 times, or an alkaline phosphatase-labeled goat anti-mouse IgE antibody (Product No. PA-284, manufactured by Binding Site) diluted 500 times was added in an amount of 50 μl/well and reacted at room temperature for 60 minutes. 100 μl/well of a 10% diethanol amine buffer solution (pH 9.8) containing p-nitrophenyl phosphate as an enzyme substrate, was reacted, and the absorbance at 405 nm was measured. The amount of each antibody was calculated from the calibration curve of each standard antibody, and the IC50 value of the compound of the formula (I) on the antibody production was calculated using as the control value a value obtained in the absence of the compound of the formula (I).

[5] = system: IgM antibody production from murine spleen B cells; test: Effects on the IgM antibody production from murine spleen cells (LPS + IL4); assay type: cell-based, BALB/c mouse; conditions: Mus musculus, B-cell, 168 h, read-out: IC50 value, IgM antibody production
Protocol: as §1, §2, §3

[6] = system: IgE antibody production from murine spleen B cells; test: Effects on the IgE antibody production from murine spleen cells (LPS + IL4); assay type: cell-based, BALB/c mouse; conditions: Mus musculus, B-cell, 168 h, read-out: IC50 value, IgE antibody production
Protocol: as §1, §2, §3

[7] = BALB/c thymocytes, Con A 5 μg/ml, 48 hours, 3H-TdR uptake
[8] = bone marrow cells, 20% L929 culture supernatant, 48 hours, 3H-TdR uptake, Tables 12-15, read-out: IC50 value, c (murine bone mallow cells)
[9] = spleen B cells, LPS 10 μg/ml, IL4 100 U/ml, 7 days, enzyme-immunoassay

SMILES	IC50 [1, 7] [µg/mL]	IC50 [2] [µg/mL]	IC50 [3, 8] [µg/mL]	IC50 [4, 9] [µg/mL]	IC50 [5, 9] [µg/mL]	IC50 [6, 9] [µg/mL]	IC50 [1] [µg/mL]	IC50 ([3]; L929, read-out: IC50 value, c (murine bone mallow cells)) [µg/mL]	IC50 [4] [µg/mL]	IC50 [5] [µg/mL]	IC50 [6] [µg/mL]
C=C[C@]1(O)C=C[C@H]2CO[C@@H]1O2 [Compound 27, 1,6-anhydro-3,4-dideoxy-2-C-vinyl-β-D-threo-hex-3-enopyranose]	49 (≈ 318 µM)	180	44 (≈ 285 µM)	34	36	24	–	–	–	–	–
CCCC[C@]1(O)C=C[C@H]2CO[C@@H]1O2 [Compound 30]	110 (≈ 597 µM)	540	190 (≈ 1030 µM)	190	150	24	–	–	–	–	–
CCCCCC(=O)O[C@H]1C=C[C@H]2CO[C@@H]1O2 [Compound 6]	250 (≈ 1100 µM)	540	270 (≈ 1190 µM)	450	330	210	–	–	–	–	–
O=C(O[C@H]1C=C[C@H]2CO[C@@H]1O2)c1cccs1 [Compound 14]	42 (≈ 176 µM)	13	500 (≈ 2100 µM)	10	0.89	3.7	–	–	–	–	–
O=C(Oc1ccccc1)O[C@H]1C=C[C@H]2CO[C@@H]1O2 [Compound 22]	300 (≈ 1210 µM)	130	> 1000	670	230	4	–	–	–	–	–
O=C(CCCCCCCCCCCCCCCO)O[C@H]1C=C[C@H]2CO[C@@H]1O2 [Compound 49, 1,6-anhydro-3,4-dideoxy-2-O-(16-hydroxy)hexadecanoyl-β-D-threo-hex-3-enopyranose]	11 (≈ 28.8 µM)	32	41 (≈ 107 µM)	< 0.1	0.43	< 0.1	–	–	–	–	–
CCCCCCCCCCCCCCCC(=O)O[C@H]1C=C[C@H]2CO[C@@H]1O2 [Compound 7]	49 (≈ 134 µM)	76	89 (≈ 243 µM)	330	410	180	–	–	–	–	–
C[C@]1(O)C=C[C@H]2CO[C@@H]1O2 [Compound 28]	76 (≈ 535 µM)	280	150 (≈ 1060 µM)	380	590	280	–	–	–	–	–
O=C(CCl)O[C@H]1C=C[C@H]2CO[C@@H]1O2 [Compound 10]	1.4 (≈ 6.84 µM)	18	68 (≈ 332 µM)	< 0.001	< 0.001	< 0.001	–	–	–	–	–
CCCCCCCCCCCCCCCC(=O)O[C@@H]1C=C[C@H]2CO[C@@H]1O2 [Compound 109]	550 (≈ 1500 µM)	740	> 1000	< 0.1	31	< 0.1	–	–	–	–	–
CCCCCCCC/C=C\CCCCCCCC(=O)O[C@H]1C=C[C@H]2CO[C@@H]1O2 [Compound 8]	–	–	> 1000	810	340	310	–	–	–	–	–
Nc1ccccc1C(=O)O[C@H]1C=C[C@H]2CO[C@@H]1O2 [Compound 19]	–	–	–	–	–	–	0.39 (≈ 1.58 µM)	160 (≈ 647 µM)	24	76	32
O=C(/C=C/c1ccccc1)O[C@H]1C=C[C@H]2CO[C@@H]1O2 [Compound 18]	–	–	370 (≈ 1430 µM)	< 0.001	0.68	< 0.001	–	–	–	–	–
CO[C@H]1C=C[C@H]2CO[C@@H]1O2 [Compound 41, 1,6-anhydro-3,4-dideoxy-2-O-methyl-β-D-threo-hex-3-enopyranose]	–	–	> 1000	670	> 1000	0.95	–	–	–	–	–
COC(=O)O[C@H]1C=C[C@H]2CO[C@@H]1O2 [Compound 21, 1,6-anhydro-3,4-dideoxy-2-O-methoxycarbonyl-β-D-threo-hex-3-enopyranose]	–	–	> 1000	500	130	17	–	–	–	–	–
CC(=O)O[C@H]1C=C[C@H]2CO[C@@H]1O2 [Compound 9]	–	–	> 1000	790	720	320	–	–	–	–	–
CCCCCCCCCCCCCCCC(=O)O[C@@]1(C)C=C[C@H]2CO[C@@H]1O2 [Compound 33]	–	–	> 1000	340	5.6	460	–	–	–	–	–
